Test results: paper PMC12467033, “Exploring the Inhibitory Potential of Six Porphyrin Compounds Against α-Amylase and α-Glucosidase Linked to Diabetes” (Biomolecules, 2025)

How the values were obtained:
HepG2 cells = test: MTT cytotoxicity assay; type: cell-based, human; details: HepG2, 50–200 μg/mL, 24 h
Method: The cytotoxicity of six porphyrin compounds against human hepatocellular carcinoma HepG2 cells was evaluated using the MTT assay. HepG2 cells were seeded into 96-well plates at a density of 5000 cells per well and cultured for 24 h at 37 °C in a 5% CO2 incubator. Then, 100 µL of sample solutions at various concentrations (50, 100, and 200 µg/mL) was added to the experimental wells, with blank control wells and solvent control wells also included. The cells were further incubated for 24 h. After incubation, 10 µL of MTT solution (5 mg/mL) was added to each well, and the plates were incubated for another 4 h. Subsequently, 100 µL of Formazan solubilization solution was added to each well, followed by gentle mixing. The plates were returned to the incubator and maintained until complete dissolution of Formazan crystals was observed under a microscope. The absorbance at 570 nm was measured using a microplate reader (Meigu Molecular Instrument Company, Shanghai, China), and the survival rate of HepG2 cells was calculated.(12) Cell viability=As-Ab/Ac-Ab×100%
In the formula, As represents the absorbance of the sample well, Ac denotes the absorbance of the blank control well (without the drug), and Ab refers to the absorbance of the solvent control well (devoid of both cells and the drug).

α-glucosidase [1] = molecular target: T1, α-glucosidase (Saccharomyces cerevisiae, UniProt P53341); test: In vitro stability study (temperature, pH), inhibition rate against α-glucosidase; type: physicochemical; details: water bath 30–100 °C, 20 min
Method: (§1) Samples of a certain mass concentration were subjected to a water bath at different temperatures (30, 40, 50, 60, 70, 80, 90, 100 °C) for 20 min and treated under different pH conditions (2.0, 3.0, 4.0, 5.0, 6.0, 7.0, 8.0, 9.0, and 10.0) for 20 min to determine the effect of temperature and pH on the stability of the two enzymes.

α-amylase [2] = molecular target: T2, α-amylase (Sus scrofa, UniProt P00690); test: In vitro stability study (temperature, pH), inhibition rate against α-amylase; type: physicochemical; details: water bath 30–100 °C, 20 min
T2 sequence (P00690 16-511): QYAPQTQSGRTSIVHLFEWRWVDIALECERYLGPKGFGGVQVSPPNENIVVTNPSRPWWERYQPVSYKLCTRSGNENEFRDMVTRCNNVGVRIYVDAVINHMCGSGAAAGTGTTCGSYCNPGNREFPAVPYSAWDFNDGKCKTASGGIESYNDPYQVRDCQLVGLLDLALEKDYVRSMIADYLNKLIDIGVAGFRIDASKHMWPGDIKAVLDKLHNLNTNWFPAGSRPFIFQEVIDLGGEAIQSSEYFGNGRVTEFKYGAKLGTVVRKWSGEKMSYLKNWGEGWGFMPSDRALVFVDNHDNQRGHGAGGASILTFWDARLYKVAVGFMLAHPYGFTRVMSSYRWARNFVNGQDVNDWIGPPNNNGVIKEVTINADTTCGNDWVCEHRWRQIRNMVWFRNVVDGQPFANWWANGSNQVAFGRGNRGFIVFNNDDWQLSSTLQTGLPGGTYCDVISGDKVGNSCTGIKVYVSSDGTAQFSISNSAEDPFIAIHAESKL
Method: as §1

α-amylase [3] = molecular target: T2, α-amylase; test: Fluorescence quenching, binding and thermodynamics with α-amylase
Description: In the α-amylase experiment, a series of porphyrins and amylase (200 U/L) were mixed in a volume ratio of 1:1.
The Stern–Volmer equation [35] was adopted to determine the quenching mechanisms between six porphyrin compounds and both enzymes in the experimental group, with Formula (6):(6) F0/F=1+Ksv[Q]=1+Kqτ0[Q]
The Stern–Volmer equation was adapted based on experimental data to more accurately characterize the quenching behavior [36], with Formula (7):(7) F0/F=e^Ksv[Q]=e^Kqτ0[Q]
In the formula, the fluorescence quenching ratio was calculated as F0/F, where F0 corresponds to the emission intensity of pure α-amylase solution (control) and F denotes the intensity measured after the incremental addition of porphyrin ligands. KSV and Kq denote the Stern–Volmer quenching constant and the bimolecular quenching rate constant, respectively, τ0 (10^−8 s) is the average fluorescence lifetime of the fluorophore in the absence of quencher, and [Q] indicates the concentration of porphyrin compounds.
Due to the presence of an internal filtration effect, a decrease in the fluorescence intensity of the system may occur. Therefore, all fluorescence data were corrected using Formula (8) to eliminate the internal filtration effect.(8) Fcor=Fobse^(Aex+Aem)/2
The evaluation of the interaction forces between porphyrin compounds and the two enzymes can be achieved by calculating thermodynamic parameters. When both ΔH^0 and ΔS^0 are positive, the predominant interaction force is hydrophobic. When both ΔH^0 and ΔS^0 are negative, the main forces are hydrogen bonding and van der Waals forces. When ΔH^0 < 0 and ΔS^0 > 0, the primary interaction is electrostatic attraction.
The thermodynamic parameters were calculated using Formulas (9) and (10), and then the Van’t Hoff plot for the interactions between the porphyrin compounds and the two enzymes was generated by plotting lnKa on the Y-axis versus 1/T on the X-axis.(9) lnKa=−ΔH^0/RT+ΔS^0/R (10) ΔG^0=ΔH^0−TΔS^0=−RTlnKa

α-glucosidase [4] = molecular target: T1, α-glucosidase; test: α-Glucosidase inhibitory activity assay (pNPG substrate); type: biochemical; details: 37 °C
Method: The experimental groups were supplemented with different concentrations of porphyrin compounds, followed by the addition of 100 μL of 5 mmol/L pNPG. After thorough mixing, the samples were pre-incubated at 37 °C for 10 min. Subsequently, the reaction was terminated by adding 0.1 mol/L of sodium carbonate (Na2CO3) solution. Following a 3 min reaction period, the absorbance of the solutions at 405 nm was measured using a microplate reader. The inhibition rate (%) was subsequently calculated using Formula (1).
Using the enzyme inhibition rate as the y-axis and the inhibitor concentration as the x-axis, the IC50 value was calculated through linear regression fitting with GraphPad Prism software (5.0).

T1 sequence (P53341 whole entry): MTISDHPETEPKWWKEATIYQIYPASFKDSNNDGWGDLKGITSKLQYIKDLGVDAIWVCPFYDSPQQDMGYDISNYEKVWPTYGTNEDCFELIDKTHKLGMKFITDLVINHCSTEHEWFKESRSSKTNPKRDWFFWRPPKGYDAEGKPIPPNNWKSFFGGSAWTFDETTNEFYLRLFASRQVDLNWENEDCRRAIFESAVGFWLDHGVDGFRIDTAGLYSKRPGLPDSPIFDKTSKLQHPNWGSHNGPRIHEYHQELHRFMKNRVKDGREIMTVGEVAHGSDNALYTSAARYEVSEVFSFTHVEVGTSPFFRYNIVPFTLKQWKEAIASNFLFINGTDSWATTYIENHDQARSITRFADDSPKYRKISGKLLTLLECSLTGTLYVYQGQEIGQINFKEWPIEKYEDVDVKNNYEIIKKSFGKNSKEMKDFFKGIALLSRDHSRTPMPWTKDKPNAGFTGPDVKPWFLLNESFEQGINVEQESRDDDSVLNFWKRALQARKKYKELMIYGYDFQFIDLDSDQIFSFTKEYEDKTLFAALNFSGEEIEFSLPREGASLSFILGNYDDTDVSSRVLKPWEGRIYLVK

With O=C(O)c1ccc(-c2c3nc(c(-c4ccc(C(=O)O)cc4)c4ccc([nH]4)c(-c4ccc(C(=O)O)cc4)c4nc(c(-c5ccc(C(=O)O)cc5)c5ccc2[nH]5)C=C4)C=C3)cc1.[Ni+2] [Ni–TCPP, nickel (II) meso-tetra (4-carboxyphenyl) porphine] the cell viability (HepG2 cells) was “above 88%”, the “thermal stability: inhibition rate against α-glucosidase” value (α-glucosidase [1]) was “remained relatively stable” and the “thermal stability: inhibition rate against α-amylase” value (α-amylase [2]) was “small fluctuations”. For the same compound, the “quenching mechanism of α-amylase fluorescence” value (α-amylase [3]; Stern–Volmer plots, 298–310 K) was “pure static quenching”, the “Ka (binding constant)” value (α-amylase [3]; T 298 K) was 99.31 ± 0.12 ×10^5 L/mol and the Kq (α-amylase [3]; T 298 K) was 9.78 ± 0.03 ×10^12 L/mol/s. For the same compound, the Ksv (α-amylase [3]; T 298 K) was 9.78 ± 0.03 ×10^4 L/mol, the “n (number of binding sites)” value (α-amylase [3]; T 298 K) was 1.44 and the “ΔG^0” value (α-amylase [3]; T 298 K) was -9.541 ± 0.019 kcal/mol. The “Ka (binding constant)” value (α-amylase [3]; T 304 K) was 5.75 ± 0.04 ×10^5 L/mol, the Kq (α-amylase [3]; T 304 K) was 8.47 ± 0.07 ×10^12 L/mol/s and the Ksv (α-amylase [3]; T 304 K) was 8.47 ± 0.07 ×10^4 L/mol. For the same compound, the “n (number of binding sites)” value (α-amylase [3]; T 304 K) was 1.19, the “ΔG^0” value (α-amylase [3]; T 304 K) was -8.011 ± 0.014 kcal/mol and the “Ka (binding constant)” value (α-amylase [3]; T 310 K) was 0.61 ± 0.02 ×10^5 L/mol. The Kq (α-amylase [3]; T 310 K) was 7.11 ± 0.05 ×10^12 L/mol/s, the Ksv (α-amylase [3]; T 310 K) was 7.11 ± 0.05 ×10^4 L/mol and the “n (number of binding sites)” value (α-amylase [3]; T 310 K) was 0.99. For the same compound, the “ΔG^0” value (α-amylase [3]; T 310 K) was -6.785 ± 0.017 kcal/mol, the “ΔH^0” value (α-amylase [3]; Van’t Hoff, 298–310 K) was -78.002 ± 0.043 kcal/mol and the “ΔS^0” value (α-amylase [3]; Van’t Hoff, 298–310 K) was −961.90 ± 0.08 J/mol/k. For the same compound, the “IC50 α-GLU” value (α-glucosidase [4]) was 6.58 ± 0.21 µg/mL.
